Assay results as given in patent publication US20170002057A1, “COMPOSITIONS CONTAINING FUSION PROTEIN OF ALBUMIN AND ANALOGS THEREOF, METHODS FOR MAKING AND USING THE SAME” (NAL PHARMACEUTICAL GROUP LIMITED, priority 2015, published 2017).

Experiments:
[1] = In vivo pharmacokinetic profile in rat after IV injection (ELISA)
Experimental: The rat was restrained manually at the designated time points, approximately 300 μL of blood sample was collected via jugular vein into EDTA-K2 tubes and subsequently centrifuged at 4° C. and 1500 g for 10 min to obtain plasma samples.
Standard curve was prepared by the following procedure. Duplicate standard points were prepared by serially diluting Free SST Stock (1 mg/mL) with diluent buffer to produce 5, 2.5, 1.25, 0.625, 0.313, 0.156, 0.078 and 0.039 ng/mL solutions.
Standard curve was prepared by the following procedure. Duplicate standard points were prepared by serially diluting SST fusion protein (2.42 mg/mL) with pooled rat plasma to produce 225, 112.5, 56.2, 28.1, 14.1, 7.03, 3.51 and 1.76 ng/mL solutions.
ELISA assay has been performed as described in Example 5-3.

[2] = target: human somatostatin sst2 receptor (human) (UniProt P30874); assay: cell-based or functional assay
[3] = rat, intravenous, SST 0.02 mg/kg, SST fusion protein 27.1 mg/kg

Sequence of UniProt P30874 (P30874 whole entry, the tested form may be a part): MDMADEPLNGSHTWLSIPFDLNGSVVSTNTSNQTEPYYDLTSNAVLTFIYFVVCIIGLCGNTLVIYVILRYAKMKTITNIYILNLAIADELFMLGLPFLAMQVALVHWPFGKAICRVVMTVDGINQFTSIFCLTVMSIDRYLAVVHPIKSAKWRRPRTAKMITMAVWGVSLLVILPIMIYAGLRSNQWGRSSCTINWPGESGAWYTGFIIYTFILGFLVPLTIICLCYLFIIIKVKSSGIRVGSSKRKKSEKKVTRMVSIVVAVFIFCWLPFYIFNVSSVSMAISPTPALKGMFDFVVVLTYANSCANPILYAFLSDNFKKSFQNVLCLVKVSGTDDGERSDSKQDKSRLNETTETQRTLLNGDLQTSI

Compound	clinical signs after injection ([1]; male Sprague Dawley rats, tail vein injection, SST 0.02 mg/kg, SST fusion protein 27.1 mg/kg)	level at 1 min ([1]; male, Sprague Dawley, in vivo, rat, IV 0.02 mg/kg, sampling time 1 min, read-out: Plasma SST concentration, Mean) [ng/mL]	level at 2 min ([1]; male, Sprague Dawley, in vivo, rat, IV 0.02 mg/kg, sampling time 2 min, read-out: Plasma SST concentration, Mean) [ng/mL]	level at 4 min ([1]; male, Sprague Dawley, in vivo, rat, IV 0.02 mg/kg, sampling time 4 min, read-out: Plasma SST concentration, Mean) [ng/mL]	level at 0.1 h ([1]; male, Sprague Dawley, in vivo, rat, IV 0.02 mg/kg, sampling time 6 min, read-out: Plasma SST concentration, Mean) [ng/mL]	level at 8 min ([1]; male, Sprague Dawley, in vivo, rat, IV 0.02 mg/kg, sampling time 8 min, read-out: Plasma SST concentration, Mean) [ng/mL]	AUC(0-inf) ([1]; male, Sprague Dawley, in vivo, rat, intravenous, SST 0.02 mg/kg, SST fusion protein 27.1 mg/kg, read-out: AUC0-inf, Mean (converted)) [ng·h/mL]	AUC(0-t) ([1]; male, Sprague Dawley, in vivo, rat, intravenous, SST 0.02 mg/kg, SST fusion protein 27.1 mg/kg, read-out: AUC0-t, Mean (converted)) [ng·h/mL]	clearance ([1]; male, Sprague Dawley, in vivo, rat, intravenous, SST 0.02 mg/kg, SST fusion protein 27.1 mg/kg, read-out: CL, Mean) [mL/min/kg]	Vd ([1]; male, Sprague Dawley, in vivo, rat, intravenous, SST 0.02 mg/kg, SST fusion protein 27.1 mg/kg, read-out: Vdss, Mean) [L/kg]	Plasma SST concentration, Mean ([1]; rat, IV 0.02 mg/kg, sampling time 0 min) [ng/mL]	AUMC0-inf, Mean [1, 3] [mg · h^2/mL]	AUMC0-t, Mean [1, 3] [mg · h^2/mL]	MRTIV, Mean [1, 3] [h]	EC50 values of the inhibition of cAMP production [2] [pM]
C[C@H](N)C(=O)NCC(=O)N[C@H]1CSSC[C@@H](C(=O)O)NC(=O)[C@H](CO)NC(=O)[C@H]([C@@H](C)O)NC(=O)[C@H](Cc2ccccc2)NC(=O)[C@H]([C@@H](C)O)NC(=O)[C@H](CCCCN)NC(=O)[C@H](Cc2c[nH]c3ccccc23)NC(=O)[C@H](Cc2ccccc2)NC(=O)[C@H](Cc2ccccc2)NC(=O)[C@H](CC(N)=O)NC(=O)[C@H](CCCCN)NC1=O [Free SST]	no negative clinical signs were observed	7.13	4.95	4.3	1.07	2.95	0.73	0.483	510	2.19	0	173	55.9	4.1	
Octreotide (peptide)															41
